From patent publication US20100292306A1, “Compositions And Methods For The Treatment Of Muscular Dystrophy” (priority 2005, published 2010)
Residues, ends and D or L forms follow the SMILES beside them. *: point of attachment. Cbz = O=C(OCc1ccccc1)*

Columns and labels:
IκB-α and phospho-IκB-α = assay: Western blot of phospho-IκB-α and IκB-α in costal diaphragm after proteasomal inhibition with MG132; assay type: in vivo, nondystrophic and mdx mice
Description: The influence of the proteasomal inhibitor MG132 on the cytosolic expression of IκB-α and Pi-IκB-α was determined by administering 5 month nondystrophic and mdx mice MG132 (1 mg/kg, intraperitoneal) or vehicle (DMSO) in vivo 2 h prior to euthanization and isolation of the diaphragm. The individual intact costal diaphragms from the MG132 group were then exposed to MG132 ([…] in HEPES Ringer) in vitro for another 2 h while the costal diaphragms from the vehicle group were exposed to HEPES Ringer and vehicle. This procedure of combining in vivo and in vitro exposure to MG was used to maximize inhibition of proteasomal degradation and facilitate the cytosolic accumulation of Pi-IκB-α and IκB-α in the MG132 treated preparations. […]
Cytosolic and nuclear extracts were obtained by homogenizing individual muscles at a concentration of 1 mg wet weight per 18 μl of low salt lysis buffer (LSLB: 10 mM HEPES, 10 mM KCl, 1.5 mM MgCl2, 0.1 mM EDTA, 0.1 mM EGTA, 1 mM dithiothreitol, 1.0 mg/ml benzamidine, 0.5 mM phenylmethylsulfonyl fluoride, 4.0 μl/ml protease inhibitor cocktail Sigma #8340, 10 μl/ml phosphatase inhibitor Sigma #P2850, pH 7.9. See Kumar et al. (2003); Carlson et al. (2005)). […] Pellets were subsequently washed twice (50 μl of LSLB) and resuspended in ice-cold high-salt lysis buffer (HSLB: 20 mM HEPES (pH 7.9), 420 mM NaCl, 1 mM EDTA, 1 mM EGTA, 25% glycerol, 1 mM dithiothreitol, 0.5 mM phenylmethylsulfonyl fluoride, 1.0 mg/ml benzamidine, 4 μl/ml protease inhibitor cocktail, 10 μl/ml phosphate inhibitor; 4 μl/mg wet […] and centrifuged (13,000 rpm, 6 min, 4° C.). The supernatant (nuclear extract) was stored at −80° C. Protein concentration was determined using the Bradford assay (Bio-Rad 500-0006) in a standard 96 well plate.
Muscle proteins and immunoprecipitates (20 μg) were separated by SDS-PAGE under reducing conditions and transferred to PVDF membranes (Bio-Rad). […] Equal loading of proteins for cytosolic and whole cell extracts was evaluated by developing a blot for GAPDH. […]

mdx mice = assay: Noninvasive whole body tension (WBT) measurement of forward pulling tensions; assay type: in vivo
Text: FIG. 18 presents individual “forward pulling tensions” (FPTs; upward deflections) recorded from a PDTC-treated mouse (Series 2) using the whole body tension (WBT) technique (Carlson and Makiejus, 1990). The rank order of FPTs from highest to lowest is indicated by the numbers in the figure. […] In the Series 2 experiments, WBT measurements were obtained from each of the saline-injected and PDTC-injected mice on days 0, 9, 21 and 40 of the experiment.
As a first step in examining the potential effects of PDTC treatment on WBT tension development, the slope of the decline in FPTs was evaluated for each recording session for each mouse examined in the Series 2 experiments (FIG. 19A, 19B). This measure essentially provides a “fatigue index” (FI) since the slope of the decline in FPTs is a direct measure of the average magnitude of the decline in FPT per individual pull for rank-ordered pulls number 2 through 10. If 10 individual pulls obtained during the recording session have identical magnitudes representing the highest FPT, then the FI equals 0. In contrast, a 50% reduction in FPT per pull would produce an FI equal to −0.5.
To examine the potential effect of PDTC treatment on FI in age matched adult mdx mice, a pre-treatment FU was obtained during a typical recording session from each of 10 mdx mice used in the Series 2 investigations (age 9.5 to 16 months at beginning of study). Five of the mice were subsequently treated with daily injections of vehicle (HEPES buffered Ringer's solution) and 5 of the mice were treated with daily injections of 50 mg/kg PDTC. Recordings for each of the mice were subsequently obtained on days 9, 21, and 40 of the treatment period (e.g., FIG. 19). To determine the potential effects of treatment on FI, the FIs obtained on days 9, 21, and 40 (e.g., FIG. 19) were each normalized to the pre-treatment FI for each of the 10 mice used in the study. […] A decrease in the FI indicating a reduction in the average loss of tension per pull during the course of the study would produce normalized FIs less than one, no change in FI would be associated with normalized FIs equal to 1.0, and increases in FI would produce normalized FIs greater than 1.0.
Mdx (C57 Bl10-mdx) and nondystrophic (C57Bl10-SnJ) mice were obtained from Jackson laboratories and bred under conditions approved by the Institutional Animal Care and Use Committee (IACUC). All studies were performed in accordance with the guidelines provided by the IACUC. Male and female PDTC treated mdx mice received daily intraperitoneal (ip) injections of 50 mg/kg pyrollidine dithiocarbamate (PDTC; Sigma P8765) dissolved in sterile-filtered (0.2 μm) HEPES-buffered Ringers solution (147.5 mM NaCl, 5 mM KCl, 2 mM CaCl2, 11 mM glucose, 5 mM Hepes, pH 7.35). Age- and gender-matched groups of vehicle-treated mice received corresponding injections of HEPES Ringers. See Carlson et al., 2005. The PDTC experiments were conducted on two series of mature adult mdx mice (9.5-16 month; 19-20 months) and on a series of young adult (1 month) mice. In each case, the mice in the experimental and vehicle-treated groups were matched according to age and gender with an equal number of males and females in each group. WBT tension measurements were obtained prior to initiating treatment and on multiple occasions following at least 3 weeks (20 days) of treatment.
A group of 30 day-old mdx mice were exposed to daily ip injections (30 day) of 40 mg/kg UDCA (Sigma #5127; 2 mg/ml; N=12 experimental) in an isotonic saline vehicle (1.02% NaCl, pH 8.4,) or a synthetic taurine derivative of UDCA (tauroursodeoxycholic acid, TUDCA, SpA Laboratorio Farmacologico, Cenate Sotto, Italy; 6 mg/ml; N=4 experimental) administered in a saline vehicle (NaCl 6 g/l, KCl 0.3 g/l, CaCl2 0.2 g/l, Na acetate 4 g/l, 300 mosM/l, pH 6.1).
WBT measurements were obtained as indicated in Examples 5 through 7 by placing an approximately 0.5 inch square piece of adhesive tape around the tail about 1 inch from the tip. […]

nuclear p65 activation = assay: TransAM NF-κB ELISA of nuclear p65 activation in mdx costal diaphragm; assay type: in vivo, mdx mice
Description: Cytosolic and nuclear fractions were obtained from isolated costal diaphragm using techniques that were slightly modified from Kumar and Boriek (2003). The muscles were removed from vehicle and drug-treated euthanized mdx mice at the end of the treatment period, and were flash-frozen and stored at −80° C. for a period of 1 to 4 weeks. The muscles were then thawed and weighed before being homogenized on ice using a mortar and pestle in low salt lysis (LSL) buffer (1 mg muscle wet weight/18 μl solution; in mM: 10 HEPES, 10 KCl, 1.5 MgCl2, 0.1 EDTA, 0.1 EGTA, 1 dithiothreitol (DTT), 0.5 phenylmethylsulfonylfluoride (PMSF); 0.5 mg/ml benzamidine, 4.0 μl/ml protease inhibitor cocktail Sigma #8340 (PIC) to produce the following final concentrations—2.1 μg/ml leupeptin, 3.85 μg/ml aprotinin, 0.416 mM AEBSF (Sigma A8456), 16 μM bestatin, 6 μM pepstatin A, 5.6 μM E64; pH 7.9). To lyse the cells, the ground tissue was then subjected to 2 freeze-thaw cycles (5 min freeze on dry ice followed by thawing at room temperature), and was subsequently vortexed and centrifuged (13,000 rpm, 15 s). The supernatant cytosolic extract was immediately frozen (−80° C.) for subsequent analyses as needed, while the nuclear pellet was washed in 50 μl LSL (2 times) before being re-suspended on ice in a high salt nuclear extraction buffer (in mM: 20 HEPES, 420 NaCl, 1 EDTA, 1 EGTA, 1 DTT, 0.5 PMSF; 25% glycerol, 0.5 mg/ml benzamidine, 4.0 μl/ml PIC; pH 7.9) at a ratio of 4 μl of solution per mg muscle wet weight. Preparations were incubated on ice for 30 min and vortexed for 10 s every 5 min before being centrifuged (13,000 rpm, 6 min) at 4° C. The supernatant nuclear extract was then removed and frozen (−80° C.) for subsequent analyses. Potential contamination of nuclear extracts with cytoplasmic proteins was less than 5%. Protein determinations for each fraction were obtained using the Bradford assay.
The Trans-Am assay (Active Motif; Carlsbad, Calif.) was used to determine nuclear NF-κB activation in nuclear fractions which were applied to the 96 well ELISA plates at 2-20 μg protein. The p65 primary antibody (catalogue number 40096) was used to detect p65 bound to oligonucleotide in vehicle and drug-treated preparations in accordance with kit instructions. A nuclear extract from Jurkat cells was routinely run as a positive control in association with each set of control and experimental samples.
Horizontal dashed lines indicate average levels observed in nondystrophic, vehicle, and UDCA treated preparations as indicated. In each case, percent recovery is determined by dividing the mean improvement observed in the UDCA treated preparation (UDCA-vehicle) from the deficit observed in the vehicle-treated preparation (nondystrophic-vehicle mdx). Mdx mice were treated for 30 days beginning at 1 month of age. Horizontal dashed lines in (A) and (B) representing nondystrophic values were obtained from a cohort of nondystrophic mice at 2 months of age. […] The results were obtained from two separate groups of vehicle and UDCA treated preparations that were assayed using two different 96 well plates. For each plate, the absorbance for each sample was normalized to the average absorbance determined for the vehicle-treated preparations on that plate. […] Millman et al., 2007. N is the number of mice and preparations in each condition. Shown are the means and standard errors. […] indicate p<0.05 and p<0.01, respectively, between vehicle and UDCA treated preparations. […]

[1] = UDCA 30 days from 1 month of age
[2] = UDCA 30 days, (UDCA-vehicle)/(nondystrophic-vehicle mdx)

CC(C)C[C@@H](C=O)NC(=O)[C@H](CC(C)C)NC(=O)[C@H](CC(C)C)NC(=O)OCc1ccccc1 [MG132, Z-leu-leu-leu-al] (Cbz-Leu-Leu-Leu-aldehyde)
increase in proportion of phosphorylated IκB-α (IκB-α and phospho-IκB-α; mdx diaphragm cytosolic extracts, not significant): 1.3 fold | expression of cytosolic IκB-α (IκB-α and phospho-IκB-α; nondystrophic and mdx preparations): not significantly increased | proportion of phosphorylated IκB-α (IκB-α and phospho-IκB-α; nondystrophic diaphragm, cytosol and whole cell extracts, MG132 1 mg/kg ip 2 h then 50 mM in vitro 2 h, p<0.05): doubling

C[C@H](CCC(=O)NCCS(=O)(=O)O)[C@H]1CC[C@H]2[C@@H]3[C@@H](O)C[C@@H]4C[C@H](O)CC[C@]4(C)[C@H]3CC[C@]12C [TUDCA, tauroursodeoxycholic acid]
effectiveness compared with UDCA (mdx mice; daily ip 30 days in 30 day-old mdx mice, TUDCA 6 mg/ml, N=4): No differences

C[C@H](CCC(=O)O)[C@H]1CC[C@H]2[C@@H]3[C@@H](O)C[C@@H]4C[C@H](O)CC[C@]4(C)[C@H]3CC[C@]12C [UDCA, ursodeoxycholic acid]
increase in WBT5 above vehicle-treated (mdx mice; [1]): about 21% | increase in WBT10 above vehicle-treated (mdx mice; [1]): about 21% | recovery of the dystrophic deficit in WBT5 (mdx mice; [2]): 27% | recovery of the dystrophic deficit in WBT10 (mdx mice; [2]): 24% | recovery towards values in mature nondystrophic preparations (nuclear p65 activation; 30 day UDCA treatment): 42% | reduction in nuclear p65 activation (nuclear p65 activation; 30 day UDCA treatment, p<0.05): 34% | mean absorbance relative to vehicle-treated preparations (nuclear p65 activation; [1]): approximately 66%
